Data on eight compounds can be found in US11938138B2, “Methods for improved treatment of cancer” (Washington University, priority 2020, dated 2024).

The subject of data set [1] is Advanced solid tumors or NHL. As to conditions: cited from earlier work; for DLTs: G3, at 80 mg, 8 patients.
A further data set deals with BRD4. Nature of the data set: BRD4 CRISPRi of K562 cells. In kind it is cell-based, human. The source says:
For CRISPRi, we first made lentivirus expressing dCas9-KRAB (Fulco et al., 2016; Xie et al., 2017) from Addgene plasmid #89567, a gift from Gary Hon, packaged in HEK293T cells along with pMD2.G (Addgene plasmid #12259) and psPAX2 (Addgene plasmid #12260), both gifts from Didier Trono. We cloned a BRD4 guide RNA, selected from the Dolcetto collection (Sanson et al., 2018), into the sgOpti plasmid (Addgene plasmid #85681, a gift from Eric Lander & David Sabatini) using Golden Gate assembly with Esp3I. We used an in-house pipeline to design a non-targeting gRNA sequence, which was cloned into CROP-seq-opti (Lalli et al., 2019). Plasmids were transfected into HEK293T cells using Lipofectamine 2000. Media was collected after 24 and 48 hours, and subsequently concentrated using Lenti-X Concentrator. Viral titers were functionally assed on HEK293T cells using the appropriate antibiotic (blasticidin or puromycin).
Next, we generated a polyclonal pool of dCas9-KRAB-expressing K562 cells. We seeded each well of a 6-well plate with 200,000 cells each containing 2 mL of growth media supplemented with 4 μg/ml polybrene and 1,000,000 infectious lentiviral particles for an estimated multiplicity of infection (MOI) of 5. Plates were centrifuged at 2,000 g for 30 minutes and returned to the incubator. After 48 hours, cells were split to mid-log phase concentration (˜400,000 cells/nil) and selected on blasticidin (10 μg/ml) for 48 hours. We made frozen stocks from these cells.
For the knockdown experiments, cells were thawed and allowed to recover for 4 days. We confirmed that the proportions of CD24^high/CD24^low was approximately equal at this point. We then seeded 200,000 cells into each well of a 6-well plate. Three wells received the BRD4 gRNA lentivirus, while the other three received the non-targeting gRNA lentivirus, at MOI 2.5. We followed the same transduction protocol described above. After 48 hours of incubation, puromycin was added to the medium at a final concentration of 2 μg/ml. After a further 48 hours, cells were passaged 1:1 into 10 cm dishes containing 10 mL of growth medium. […]

A further data set concerns K562 cells. Description: Cell cycle perturbation of K562 cells (DNA content, CD24, annexin V/PI). As to conditions: for G2 arrest / cells in G1 phase / G1 arrest: 36 hours of treatment; for G2 arrest: one-way ANOVA p<0.01; for cells in G1 phase / G1 arrest: CVT-313 2 μM (p<0.05), lovastatin 12 μM (p<0.01), FIG. 14G. In kind it is cell-based, human. The procedure: CD24 surface protein was quantified using monoclonal human antibodies. Cells were spun down at 300 g for 3 minutes and washed twice with 1 mL of Cell Staining Buffer. The cell pellet was then resuspended in 50 μl of Cell Staining Buffer containing 0.2 μg of either CD24-APC or CD24-BV421. The tube was rotated at 4° C. in the dark for 30 minutes. After, cells were washed twice (as before) and finally resuspended in 200 μl of Cell Staining Buffer. Cells were excited with 450/45 and 660/20 lasers (wavelength/filter bandwidth, both in nm). For concomitant analysis of DNA content, we used CD24-APC. Cells were incubated with 10 μg/ml Hoechst 33342 in 5 mL of growth medium for 30 minutes prior to the staining protocol. For simultaneous assessment of apoptosis, cells were stained with CD24-BV421. After the final wash, instead of resuspending in 200 μl of Cell Staining Buffer, cells were washed twice with Annexin V Staining Buffer. Cells were then incubated in 50 μl Annexin V Staining Buffer containing 0.2 μg Annexin V-FITC and 100 μg/ml propidium iodide (PI). The reaction was incubated for 15 minutes at room temperature in the dark. Afterward, we added 150 μl of Annexin V Staining Buffer and proceeded to flow cytometry. All samples were measured on a Beckman-Coulter CytoFLEX S flow cytometer. Cells were excited with 450/45, 525/40, and 610/20 lasers. We collected 10,000 events per sample. The resulting data were processed with FlowJo Software for Mac Version 10.
We perturbed the cell cycle with lovastatin and nocodazole, two drugs classically used to synchronize cells in culture (Jackman and O'Connor, 2001), as well as the cyclin-dependent kinase inhibitors CVT-313 (Brooks et al., 1997) and RO-3306 (Vassilev et al., 2006). All drugs were dissolved in DMSO except nocodazole, which was dissolved in ethanol. […] Media was refreshed every 48 hours. After 36 hours of treatment, we stained for CD24 levels and nuclear DNA content. We gated for live, single cells using the forward scatter (FSC) and side scatter channels (SSC). Univariate cell cycle analysis was performed with FlowJo. We confirmed that all drugs perturbed cell cycle by altering the proportions of cells in either G1 or G2/M phase (FIG. 14G). […] Cultures remained under drug treatment until five days had elapsed, at which point we measured CD24 levels and stained for apoptosis (FIG. 14H). As before, we set gates to exclude debris to quantitate annexin V and PI, and measured CD24 in live cells gated on FSC and SSC. The G2 inhibitors, in particular, had very few cells in the FSC/SSC gate (typically below 5%).
For the analysis of annexin V levels in either JQ1- or DMSO-treated CD24^high and CD24^low cells, we used a three-way ANOVA with treatment, cell state, and day as independent variables. […] Multiple hypothesis correction was performed using Tukey's honestly significant difference. For the cell cycle inhibitor experiment, data were analyzed using a one-way ANOVA with Dunnett's post hoc test using either DMSO or EtOH (for RO-3306) as controls.

Data set [2] concerns Relapsed/refractory lymphoma or multiple myeloma. The settings on record: cited from earlier work.
A further data set relates to Acute leukemia, MDS. The settings on record: cited from earlier work; for DLTs: G3.
The next data set has as its system NMC. As to conditions: cited from earlier work; for toxicities of interest: 4 patients (case series).
Data set [3] relates to Relapsed/refractory leukemia. As to conditions: cited from earlier work.
Another data set relates to NMC, CRPC, NSCLC. As to conditions: cited from earlier work.
The test system of data set [4] is Relapsed/refractory lymphoma. The settings on record: cited from earlier work.
The mark [5] stands for this setting: nocodazole 40 ng/μl, RO-3306 4.5 μM.

Like-named read-outs stand apart in the source and are kept apart here.

As to `CNC(=O)N1N=C(c2ccc(N3CCN(C)CC3)cc2)c2cc(OC)c(OC)cc2C[C@@H]1C` [BAY1238097], the “Development (as DLTs occurred at subtherapeutic doses of drug)” value in data set [1] (5-40 mg 2×/week in 21 day cycle) is recorded as “halted as”. Further, the “Recurrent headaches, patients” value in [1] (10 and 40 mg cohorts) is listed as “in 50%”. Besides, the DLTs result was “headache,” in data set [1] (headache), “G3 low back” in data set [1] (low back pain) and “G3 vomiting,” in [1] (vomiting).
In the case of “BRD4 gRNA: guide RNA GCGGCTGCCGGCGGTGCCCG for knockdown of BRD4 with CRISPRi (dCas9-KRAB) (listed as DNA, chemistry not given here)”, in the data set with BRD4 (imatinib 1 μM, Tukey's HSD p=0.68 (FIG. 14E-14F)), the “sensitization of K562 cells to imatinib” value is given as “partially phenocopied”. The “proportion of CD24high cells compared to non-targeting (NT) gRNA” value with BRD4 (nine days after gRNA transduction, Welch's t test p<0.01 (FIG. 6E), not to the same levels as JQ1) is listed as “significant decrease”. In the data set on BRD4 (qRT-PCR (FIG. 14D)), the “reduction of BRD4 mRNA levels” value is given as “less than 50%”.
`COC(=O)Nc1nc2ccc(C(=O)c3cccs3)cc2[nH]1` [nocodazole]: the G2 arrest result in the data set on K562 cells (setting [5]) is on record as “significant G2 arrest”. Moreover, the “surviving cells after five days of treatment” value with K562 cells (K562, nocodazole 40 ng/μl, RO-3306 4.5 μM) is “very few surviving cells”.
As for `O=C1NC(=NCc2cccs2)S/C1=C\c1ccc2ncccc2c1` [RO-3306], the G2 arrest entry in the data set on K562 cells (setting [5]) is reported as “significant G2 arrest”.
For `CC[C@H](C)C(=O)O[C@H]1C[C@@H](C)C=C2C=C[C@H](C)[C@H](CC[C@@H]3C[C@@H](O)CC(=O)O3)[C@H]21` [lovastatin], the “cells in G1 phase / G1 arrest” value in the data set on K562 cells is on record as “significant decrease”.
In the case of `Cc1sc2c(c1C)C(c1ccc(Cl)cc1)=N[C@@H](CC(=O)Nc1ccc(O)cc1)c1nnc(C)n1-2` [MK-8628/OTX015], the DLTs result in data set [2] (G3) is on record as “hyponatremia”. Further, the DLTs result in data set [2] (G4, neutropenia) is “neutropenia,”. The DLTs result in [2] (G4, thrombocytopenia) was “thrombocytopenia, G4”. Further, in data set [2] (number of patients of 45), the “Responses observed: OR (DLBCL)” value is recorded as 3 OR; the “Responses observed: with improvement of pleural effusion” value was “(DLBCL), 1”; the “Responses observed: with resolution of B symptoms” value is on record as “effusion; 2”; the “Responses observed: with responses not meeting PR criteria” value is listed as 2 with. The RP2D in [2] (q.d.s. × 14/21 days, 45 patients) is given as 80 mg. In addition, in data set [2] (toxicity incidence), the anemia result is “(91%)”, the diarrhea entry is on record as “(47%),”, the dysgeusia entry was “(15%),” and the fatigue result was “(27%),”. For the same compound, the DLTs result in the data set on Acute leukemia, MDS (diarrhea) is listed as “diarrhea, G3”. Also, in the data set with Acute leukemia, MDS (fatigue), the DLTs result was “fatigue”. For the same compound, in the data set with Acute leukemia, MDS (limited compliance), the diarrhea result is “(34%),” and the rash entry is “rash (20%)”. For the same compound, in the data set with Acute leukemia, MDS (number of patients of 41), the “Responses observed: CR” value is reported as 2 and the “Responses observed: CRi (platelets) × 2 months” value is recorded as 1. Also, the RP2D in the data set with Acute leukemia, MDS (q.d.s. × 14/21 days, 41 patients) was 80 mg. Moreover, the toxicities of interest result with NMC (G2, dysgeusia) is recorded as “dysgeusia,”. Also, the toxicities of interest entry with NMC (G2, fatigue) is given as “G2 fatigue”. Moreover, the toxicities of interest result with NMC (G2, hyperglycemia) is on record as “hyperglycemia,”. For the same compound, in the data set with NMC (G2, nausea), the toxicities of interest entry was “G2 nausea, G2”. For the same compound, the toxicities of interest entry with NMC (G3) is on record as “thrombocytopenia,”. In the data set with NMC (number of patients of 4), the “Responses observed: PR” value is recorded as 2 and the “Responses observed: SD” value is listed as 1. Further, in [3] (number of patients of 36), the “Responses observed: CR” value is recorded as 1 CR; 1 CRi; the “Responses observed: CRi (platelets)” value is given as 1 CR; 1 CRi; the “Responses observed: with disappearance of hypertrophied gums” value was “clearance, 1”. In data set [3] (q.d.s., 36 patients), the MTD is listed as 120 mg. In addition, in [3] (toxicity incidence), the abdominal pain entry is recorded as “pain (11%),”, the “decreased factor VII” value is listed as “(21%)” and the dysgeusia result is listed as “(11%),”. In addition, the “Responses observed: PR” value in the data set with NMC, CRPC, NSCLC (number of patients of 47) is 4. Further, the “Responses observed: SD” value with NMC, CRPC, NSCLC (number of patients of 47, for 4-8 months) is 5. Also, in the data set on NMC, CRPC, NSCLC (toxicity incidence), the G3-4 thrombocytopenia result is given as “(20%), G3”; the G3 anemia entry is reported as “(9%), G3”; the G3 fatigue entry was “fatigue (7%)”.
For the compound `COc1ccc(CNc2nc(N(CCO)CCO)nc3c2ncn3C(C)C)cc1` [CVT-313], in the data set on K562 cells, the “cells in G1 phase / G1 arrest” value is listed as “significant increase”.
With `Cc1noc2c1-c1ccccc1C(c1ccc(Cl)cc1)=N[C@H]2CC(N)=O` [CPI-0610], in data set [4] (dose dependent, reversible), the primary toxicity entry was “thrombocytopenia;”. Further, in [4] (number of patients of 44), the “Responses observed: CR” value is listed as 2, the “Responses observed: PR” value is listed as 1, the “Responses observed: SD” value was “PR; 6 SD” and the “Responses observed: with responses not qualifying as PR” value was 5 with. In addition, in data set [4] (of 44 patients), the “patients with G3 diarrhea” value is given as 1 patient with and the “patients with G4 thrombocytopenia” value is recorded as 1 patient with.
